According to patent publication US4513001A, “β-Adrenergic 1-[1-benzimidazolyl]-N-[2-(4-hydroxy-3-methoxy-phenyl)-2-hydroxy-ethyl]- 3-amino butane and salts and hydrates thereof” (priority 1982, dated 1985):
Read-outs that look alike come from different tables or passages of the source.

Assays:
guinea pig trachea = experiment: β-stimulant specificity: guinea pig trachea before and after propranolol; settings: for EC50: Cavia porcellus, 6 preparations
Excerpt: respiratory (guinea pig trachea, in vitro)
cardiovascular (heart rate of the dog, in vivo) by the antagonistic effect of a β-blocking product.

[1] = test system: isolated right atrium preparation of the guinea pig; experiment: Activity on the heart rate in vitro, isolated right atrium
Description: This action was studied on an isolated right atrium preparation of the guinea pig kept alive in a RINGER solution. The effect of cumulative doses on the heart rate was recorded. The results below are the averages of 6 preparations of the compound A, of 4 for Salbutamol

histamine bronchospasm [2] = experiment: Bronchodilator activity in vivo, anesthetized guinea pig, intravenous (inhibition of histamine bronchospasm, KONZETT); settings: i.v.
Description: (§1) 1.2.1 In the anesthesized guinea pig (method of KONZETT. Arch. Exp. Pathol. Pharmakol. 1940 195 71-74)
(§2) A bronchospasm was caused by intravenous histamine injection. The bronchodilator activity was shown by partial or total inhibition of this spasm.
The product studied was administered intravenously or intraduodenaly and histamine injected then at different times to follow the delay in appearance and the duration of the inhibiting effect of the treatment. […]

rat uterus preparation = experiment: Uterus relaxing activity in vitro; settings: Rattus norvegicus, 7 preparations, read-out: CE50 (effective concentration 50, inhibiting by 50% the control contraction)
Excerpt: This activity was investigated on a rat uterus preparation, put into estrus by cutaneous injection of oestradiol benzoate. The uterine horns were kept alive in a RINGER-LOCKE solution, modified by GADDUM and VOGT.
Their activity is expressed by the value of the molar CE50 (effective concentration 50, inhibiting by 50% the control contraction induced by the contracting agent).
Each CE50 indicated below was obtained from the results of 7 preparations.

[3] = test system: heart rate and mean aortic pressure; experiment: Heart rate and mean aortic pressure of the anesthetised dog, intraduodenal; format: in vivo; settings: intraduodenal
Description: 3.1.1. Activity on the heart rate and on the mean aortic pressure of the anesthetisied dog
The activity of the compound A and of Salbutamol was studied on 2 batches of 3 dogs per product: one in spontaneous respiration, the other in artificial respiration; the two substances were administered intraduodenally at 3 doses: 0.008-0.025 and 0.08 mg/kg.

histamine bronchospasm [4] = experiment: Bronchodilator activity in vivo, anesthetized guinea pig, intraduodenal (inhibition of histamine bronchospasm, KONZETT)
Description: as §1, §2
The product studied was administered intravenously or intraduodenaly and histamine injected then at different times to follow the delay in appearance and the duration of the inhibiting effect of the treatment.
The results below are the averages of the values obtained in 10 animals.

histamine bronchospasm [5] = experiment: Bronchodilator activity in vivo, anesthetized dog, intraduodenal (intratracheal pressure, histamine bronchospasm)
Description: 1.2.2. In the anesthesized dog (recording of the intratracheal pressure)
A bronchospasm was caused by intravenous injection and histamine. The bronchodilator activity was shown by partial or total inhibition of this spasm.
The products studied were administered intraduodenally and the histamine injected then at various times to follow the effect of the treatment.
The results borne in the table below are the averages of the values obtained in 3 animals for each product.

[6] = test system: isolated trachea preparation of the guinea pig; experiment: Relaxant activity on isolated tracheal muscle in vitro; settings: 6 preparations
Description: This activity was studied on an isolated trachea preparation of the guinea pig (chain of tracheal rings, according to CASTILLO and BEER. Journ. Pharmacol. Exp. Ther. 1947 90 104-109), kept alive in a KREBS solution. The effect of cumulative doses on the pressure of the preparation was recorded.
The activity of the substance was expressed by the value of the molar CD50 (decontracting concentration 50=concentration giving 50% of maximum relaxation), of which the negative log. is the value pD2, and by the intrinsic activity corresponding to maximum effect.
These values were determined in parallel for the compound A and Salbutamol, on 6 preparations for each.

SMILES: CC(C)(C)NCC(O)c1ccc(O)c(CO)c1 (stereo not drawn) [Salbutamol, reference compound]
- EC50 (guinea pig trachea; read-out: CD50 before propranolol): 11 nM
- EC50 (guinea pig trachea; propranolol 1.7×10^-8 mol, read-out: CD50 after propranolol): 38 nM
- Ratio of CD50 (guinea pig trachea; after / before propranolol): 3.5
- Heart rate, increase ([1]; 1 × 10^-4 mol): +110 beats per min.
- Heart rate, maximum ([1]; 1 × 10^-4 mol, basal 202 (Salbutamol)): 312 beats per min.
- Heart rate, increase ([1]; 1 × 10^-5 mol (maxi for Salbutamol)): +115 beats per min.
- Heart rate, maximum ([1]; 1 × 10^-5 mol, basal 209 (Compound A), 202 (Salbutamol)): 317 beats per min.
- Heart rate, increase ([1]; 1 × 10^-6 mol (maxi for Compound A)): +106 beats per min.
- Heart rate, maximum ([1]; 1 × 10^-6 mol, basal 209 (Compound A), 202 (Salbutamol)): 308 beats per min.
- Heart rate, increase ([1]; 1 × 10^-7 mol): +90 beats per min.
- Heart rate, maximum ([1]; 1 × 10^-7 mol, basal 209 (Compound A), 202 (Salbutamol)): 292 beats per min.
- Heart rate, increase ([1]; 1 × 10^-8 mol): +49 beats per min.
- Heart rate, maximum ([1]; 1 × 10^-8 mol, basal 202 (Salbutamol)): 251 beats per min.
- % inhibition in time (histamine bronchospasm [2]; 0.08 μg base/kg, 1 min): 8%
- % inhibition in time (histamine bronchospasm [2]; 0.08 μg base/kg, 5 min): 2%
- % inhibition in time (histamine bronchospasm [2]; 0.08 μg base/kg, 10 min): 0%
- % inhibition in time (histamine bronchospasm [2]; 0.08 μg base/kg, 15 min): 1%
- % inhibition in time (histamine bronchospasm [2]; 0.25 μg base/kg, 1 min): 25%
- % inhibition in time (histamine bronchospasm [2]; 0.25 μg base/kg, 5 min): 6%
- % inhibition in time (histamine bronchospasm [2]; 0.25 μg base/kg, 10 min): 2%
- % inhibition in time (histamine bronchospasm [2]; 0.25 μg base/kg, 15 min): 2%
- % inhibition in time (histamine bronchospasm [2]; 0.8 μg base/kg, 1 min): 54%
- % inhibition in time (histamine bronchospasm [2]; 0.8 μg base/kg, 5 min): 8%
- % inhibition in time (histamine bronchospasm [2]; 0.8 μg base/kg, 10 min): 7%
- % inhibition in time (histamine bronchospasm [2]; 0.8 μg base/kg, 15 min): 2%
- % inhibition in time (histamine bronchospasm [2]; 2.5 μg base/kg, 1 min): 75%
- % inhibition in time (histamine bronchospasm [2]; 2.5 μg base/kg, 5 min): 13%
- % inhibition in time (histamine bronchospasm [2]; 2.5 μg base/kg, 10 min): 8%
- % inhibition in time (histamine bronchospasm [2]; 2.5 μg base/kg, 15 min): 4%
- % inhibition in time (histamine bronchospasm [2]; 8 μg base/kg, 1 min): 91%
- % inhibition in time (histamine bronchospasm [2]; 8 μg base/kg, 5 min): 35%
- % inhibition in time (histamine bronchospasm [2]; 8 μg base/kg, 10 min): 13%
- % inhibition in time (histamine bronchospasm [2]; 8 μg base/kg, 15 min): 8%
- % inhibition in time (histamine bronchospasm [2]; 25 μg base/kg, 1 min): 97%
- % inhibition in time (histamine bronchospasm [2]; 25 μg base/kg, 5 min): 78%
- % inhibition in time (histamine bronchospasm [2]; 25 μg base/kg, 10 min): 34%
- % inhibition in time (histamine bronchospasm [2]; 25 μg base/kg, 15 min): 22%
- % inhibition in time (histamine bronchospasm [2]; 83 μg base/kg, 1 min): 94%
- % inhibition in time (histamine bronchospasm [2]; 83 μg base/kg, 5 min): 81%
- % inhibition in time (histamine bronchospasm [2]; 83 μg base/kg, 10 min): 60%
- % inhibition in time (histamine bronchospasm [2]; 83 μg base/kg, 15 min): 55%
- % inhibition in time (histamine bronchospasm [2]; 83 μg base/kg, 30 min): 50%
- % inhibition in time (histamine bronchospasm [2]; 83 μg base/kg, 45 min (n = 9)): 30%
- % inhibition in time (histamine bronchospasm [2]; 83 μg base/kg, 60 min (n = 9)): 17%
- EC50 (rat uterus preparation; contracting agent acetylcholine): 5 nM
- EC50 (rat uterus preparation; contracting agent serotonine): 8.3 nM
- Heart rate, maximum cumulative effect ([3]; artificial respiration, 15 min after 0.025 mg/kg): +41 cpm
- Average aortic pressure, maximum cumulative effect ([3]; artificial respiration, 90 min after 0.08 mg/kg): -36 mmHg
- Heart rate, maximum cumulative effect ([3]; spontaneous respiration, 20 min after 0.08 mg/kg): +26 cpm
- Average aortic pressure, maximum cumulative effect ([3]; spontaneous respiration, 1 h after 0.08 mg/kg): -40 mmHg
- Dose to obtain a high activity (histamine bronchospasm [4]): 8 mg/kg
- % inhibition in time (histamine bronchospasm [4]; 0.8 mg base/kg, 1 min): 4%
- % inhibition in time (histamine bronchospasm [4]; 0.8 mg base/kg, 5 min): 18%
- % inhibition in time (histamine bronchospasm [4]; 0.8 mg base/kg, 15 min): 16%
- % inhibition in time (histamine bronchospasm [4]; 0.8 mg base/kg, 30 min): 16%
- % inhibition in time (histamine bronchospasm [4]; 0.8 mg base/kg, 45 min): 13%
- % inhibition in time (histamine bronchospasm [4]; 0.8 mg base/kg, 60 min): 13%
- % inhibition in time (histamine bronchospasm [4]; 2.5 mg base/kg, 1 min): 2%
- % inhibition in time (histamine bronchospasm [4]; 2.5 mg base/kg, 5 min): 14%
- % inhibition in time (histamine bronchospasm [4]; 2.5 mg base/kg, 15 min): 32%
- % inhibition in time (histamine bronchospasm [4]; 2.5 mg base/kg, 30 min): 34%
- % inhibition in time (histamine bronchospasm [4]; 2.5 mg base/kg, 45 min): 29%
- % inhibition in time (histamine bronchospasm [4]; 2.5 mg base/kg, 60 min): 23%
- % inhibition in time (histamine bronchospasm [4]; 2.5 mg base/kg, 90 min): 15%
- % inhibition in time (histamine bronchospasm [4]; 2.5 mg base/kg, 120 min): 10%
- % inhibition in time (histamine bronchospasm [4]; 8 mg base/kg, 1 min): 31%
- % inhibition in time (histamine bronchospasm [4]; 8 mg base/kg, 5 min): 64%
- % inhibition in time (histamine bronchospasm [4]; 8 mg base/kg, 15 min): 76%
- % inhibition in time (histamine bronchospasm [4]; 8 mg base/kg, 30 min): 72%
- % inhibition in time (histamine bronchospasm [4]; 8 mg base/kg, 45 min): 65%
- % inhibition in time (histamine bronchospasm [4]; 8 mg base/kg, 60 min): 58%
- % inhibition in time (histamine bronchospasm [4]; 8 mg base/kg, 90 min): 52%
- % inhibition in time (histamine bronchospasm [4]; 8 mg base/kg, 120 min (n = 9 compound A, n = 8 Salbutamol)): 37%
- % inhibition in time (histamine bronchospasm [5]; 0.025 mg base/kg, 5 min): 21%
- % inhibition in time (histamine bronchospasm [5]; 0.025 mg base/kg, 20 min): 65%
- % inhibition in time (histamine bronchospasm [5]; 0.025 mg base/kg, 35 min): 63%
- % inhibition in time (histamine bronchospasm [5]; 0.025 mg base/kg, 60 min): 61%
- % inhibition in time (histamine bronchospasm [5]; 0.025 mg base/kg, 90 min): 65%
- % inhibition in time (histamine bronchospasm [5]; 0.08 mg base/kg, 5 min): 8%
- % inhibition in time (histamine bronchospasm [5]; 0.08 mg base/kg, 20 min): 50%
- % inhibition in time (histamine bronchospasm [5]; 0.08 mg base/kg, 35 min): 56%
- % inhibition in time (histamine bronchospasm [5]; 0.08 mg base/kg, 60 min): 55%
- % inhibition in time (histamine bronchospasm [5]; 0.08 mg base/kg, 90 min): 52%
- Maximum response (decontraction) [6]: 358 mg
- Emax ([6]; Cavia porcellus, Salbutamol 1.00, read-out: Intrinsic activity): 100%
- EC50 ([6]; Cavia porcellus, read-out: CD50 (decontracting concentration 50, concentration giving 50% of maximum relaxation)): 15 nM
- EC50 ([6]; Cavia porcellus, negative log of molar CD50, read-out: pD2 (converted)): 15.1 nM
